This note sets out measurements from patent US20160193299A1, “MODIFIED NUCLEOSIDE, NUCLEOTIDE, AND NUCLEIC ACID COMPOSITIONS” (Moderna Therapeutics, Inc., priority 2011, published 2016).

In one data set the test system is Female BALB/C mice. As to the kind of experiment: In vivo detection of innate immune response: human G-CSF and mouse IFN-alpha in serum after I.M. injection. The following applies: I.M., 8 hours after dosing.
In another data set the test system is mice. As to the kind of experiment: In vivo cytokine expression study (serum IFN-alpha). Particulars: mouse serum; I.M. 200 ug mRNA; after 8 hours.
The next data set concerns TNF-alpha. Briefly: Example 46A percent-modified G-CSF mRNA transfected in PBMC, TNF-alpha ELISA. It counts as cell-based, human. How it is done: The supernatant was harvested and run by ELISA 22 hours after transfection to determine the protein expression.
A further data set relates to IFN-alpha. Briefly: Example 45 cytokine study in PBMC, IFN-alpha ELISA. Particulars: for IFN-alpha signal - 2 donor average: PBMC. It counts as cell-based, human. How it is done:
(§1) The plates were then incubated at 37 C.
(§2) Each condition was done in duplicate.
(§3) Shown in Tables 69 and 70 are the average from 2 separate PBMC donors of the G-CSF and IFN-alpha production over time as measured by specific ELISA.

The next data set relates to Factor IX protein. Briefly: Factor IX mRNA transfected in serum-free media (2D HPLC / MALDI peptide detection). It counts as cell-based, Human. Particulars: 8 peptides detected, 7 unique to Factor IX. An excerpt:
The cell culture supernatant was collected and subjected to trypsin digestion before undergoing 2-dimensional HPLC separation of the peptides. Matrix-assisted laser desorption/ionization was used to detect the peptides. 8 peptides were detected and 7 of the detected peptides are unique to Factor IX.

Data set [1] concerns female Sprague Dawley rats. Briefly: In vivo delivery of modified RNA: G-CSF protein in rat serum (I.M.). Particulars: I.M. 400 ug in 100 ul, 5% sucrose, 8 hours after injection. How it is done: Protein production of modified mRNA was evaluated by delivering modified G-CSF mRNA or modified Factor IX mRNA to female Sprague Dawley rats (n=6). […] Blood was collected 8 hours after injection and the G-CSF protein level in serum was measured by ELISA.

The subject of the next data set is neutrophil count. Briefly: Example 40 multi-site IM and SC administration of G-CSF mRNA, neutrophil count. It counts as in vivo. Particulars: mice, day 3. How it is done: Injection of four doses or 2×50 ug (two sites) daily for three days (24 hrs interval) was performed. The fourth dose was administered 6 hrs before blood collection and CBC analysis. […] The mice were bled at 72 hours after the first mRNA injection (6 hours after the last mRNA dose) to determine the effect of mRNA-encoded human G-CSF on the neutrophil count. The dosing regimen is shown in Table 63 as are the resulting neutrophil counts (thousands/uL). In Table 63, an asterisks (*) indicate statistical significance at p<0.05.

A further data set deals with human PBMC. Briefly: Example 45 cytokine study in PBMC, G-CSF production ELISA. It counts as cell-based. Particulars: Lipofectamine 2000. How it is done:
as §1, §2, §3
In the G-CSF ELISA, background signal from the Lipofectamine 2000 untreated condition was subtracted at each timepoint. […] Many other cytokines were not affected by either modification.

Another data set relates to human G-CSF. Briefly: Example 32C human G-CSF modified RNA lipoplex vs saline comparison IM/SC, serum G-CSF ELISA. It counts as in vivo, C57/BL6 mice. The following applies: mouse serum, I.M. or S.C., 13 hours. How it is done:
A formulation containing 100 μg of either modified human G-CSF mRNA lipoplexed with 30% by volume of RNAIMAX™ with a 5-methylcytosine (5mc) and a pseudouridine (ψ) modification (G-CSF-Gen1-Lipoplex), modified human G-CSF mRNA with a 5mc and w modification in saline (G-CSF-Gen1-Saline), modified human G-CSF mRNA with a N1-5-methylcytosine (N1-5mc) and a w modification lipoplexed with 30% by volume of RNAIMAX™ (G-CSF-Gen2-Lipoplex), modified human G-CSF mRNA with a N1-5mc and ψ modification in saline (G-CSF-Gen2-Saline), modified luciferase with a 5mc and ψ modification lipoplexed with 30% by volume of RNAIMAX™ (Luc-Lipoplex), or modified luciferase mRNA with a a 5mc and ψ modification in saline (Luc-Saline) was delivered intramuscularly (I.M.) or subcutaneously (S.C.) and a control group for each method of administration was giving a dose of 80 uL of the formulation buffer (F. Buffer) to C57/BL6 mice. 13 hours post injection serum and tissue from the site of injection were collected from each mouse and analyzed by G-CSF ELISA to compare human G-CSF protein levels. The results of the human G-CSF protein in mouse serum from the intramuscular administration and the subcutaneous administration results are shown in Table 55.

Experimental for Female BALB/C mice: Blood is collected at 8 hours after dosing and using ELISA the protein levels of G-CSF and interferon-alpha (IFN-alpha) is determined by ELISA and are shown in Table 81.

In the data set on Female BALB/C mice (human G-CSF in mouse serum, 200 ug/mouse mRNA (R848 75 ug) in 5% sucrose), `CCOCc1nc2c(N)nc3ccccc3c2n1CC(C)(C)O` [Formulation R-848, reference compound] yielded a G-CSF protein of 3.4 pg/mL. Also, the IFN-alpha expression in the data set with Female BALB/C mice (mouse IFN-alpha in serum, 200 ug/mouse mRNA (R848 75 ug)) is 40.97 pg/mL. Further, the IFN-alpha with mice was found to be 40.971 pg/mL. The “TNF-alpha Expression” value in the data set with TNF-alpha was found to be 256.6 pg/mL. The “IFN-alpha signal - 2 donor average” value in the data set on IFN-alpha (2 Hr) is 39.1 pg/mL; with IFN-alpha (4 Hr) it was 151.3 pg/mL; in the data set on IFN-alpha (8 Hr) it was 278.4 pg/mL; in the data set on IFN-alpha (20 Hr), 362.2 pg/mL; in the data set on IFN-alpha (44 Hr), 208.1 pg/mL.

Regarding “Factor IX Gen 1: Factor IX mRNA SEQ ID NO: 10, Cap1, fully modified with 5-methylcytosine and pseudouridine”, the “expression of Factor IX protein” value in the data set with Factor IX protein is “able to express full-length Factor IX protein”. The G-CSF protein in data set [1] was determined as 2.25 pg/mL.

B1: Gen2 G-CSF mRNA: human G-CSF mRNA SEQ ID NO: 6 fully modified with 5-methylcytosine and N1-methylpseudouridine (nucleic acid, listed as Homo sapiens)
chain: GGGAAAUAAGAGAGAAAAGAAGAGUAAGAAGAAAUAUAAGAGCCACCAUGGCCGGUCCCGCGACCCAAAGCCCCAUGAAACUUAUGGCCCUGCAGUUGCUGCUUUGGCACUCGGCCCUCUGGACAGUCCAAGAAGCGACUCCUCUCGGACCUGCCUCAUCGUUGCCGCAGUCAUUCCUUUUGAAGUGUCUGGAGCAGGUGCGAAAGAUUCAGGGCGAUGGAGCCGCACUCCAAGAGAAGCUCUGCGCGACAUACAAACUUUGCCAUCCCGAGGAGCUCGUACUGCUCGGGCACAGCUUGGGGAUUCCCUGGGCUCCUCUCUCGUCCUGUCCGUCGCAGGCUUUGCAGUUGGCAGGGUGCCUUUCCCAGCUCCACUCCGGUUUGUUCUUGUAUCAGGGACUGCUGCAAGCCCUUGAGGGAAUCUCGCCAGAAUUGGGCCCGACGCUGGACACGUUGCAGCUCGACGUGGCGGAUUUCGCAACAACCAUCUGGCAGCAGAUGGAGGAACUGGGGAUGGCACCCGCGCUGCAGCCCACGCAGGGGGCAAUGCCGGCCUUUGCGUCCGCGUUUCAGCGCAGGGCGGGUGGAGUCCUCGUAGCGAGCCACCUUCAAUCAUUUUUGGAAGUCUCGUACCGGGUGCUGAGACAUCUUGCGCAGCCGUGAAGCGCUGCCUUCUGCGGGGCUUGCCUUCUGGCCAUGCCCUUCUUCUCUCCCUUGCACCUGUACCUCUUGGUCUUUGAAUAAAGCCUGAGUAGGAAG
modifications: 5mC/N1-methylpseudouridine modified
B1: the “increase in neutrophil count above control” value with neutrophil count (intramuscular) and in the data set on neutrophil count (subcutaneous) was “two fold increase” each time. The G-CSF production result in the data set with human PBMC was “highest level of G-CSF production”. Moreover, the “human G-CSF protein production relative to 5-methylcytosine/pseudouridine modified mRNA” value in the data set with human G-CSF is reported as “increased human G-CSF protein production”. In addition, the “innate immune recognition, cytokine production (IFN-alpha and others)” value with IFN-alpha (human PBMC, Lipofectamine 2000) was “did not significantly increase cytokines”.
